Assays:
[1] = system: IL-25+NMU-induced airway inflammation; experiment: IL-25+NMU-induced airway inflammation, intranasal co-administration of CGRP; format: in vivo, mouse
Method: Cytokine-induced airway inflammation. Mice received nasally 500 ng IL-25, 500 ng IL-33, 20 ug NMU or 6.65 ug CGRP diluted in DPBS for three consecutive days. For nasal administration, mice were lightly anesthetized with Isoflurane (Cat #07-893-1389; Patterson Veterinary). For induction of inflammatory ILC2s, mice received intraperitoneally 500 ng IL-25 for three consecutive days. One day after the last treatment, mice were euthanized and perfused with 8 ml cold PBS via the right heart ventricle. After exposure of the trachea, a small incision was made at the top of the trachea and a curved gavage needle was inserted. Lungs were washed with 1.5 ml cold PBS via the needle and the retrieved bronchoalveolar lavage fluid was centrifuged at 1300 rpm for 5 min at 4 C. After centrifugation, the supernatant was frozen at −20° C. and the cell pellet was resuspended in 250 ul complete medium and stored on ice until flow cytometric analysis. The post-caval lung lobe was transferred into 10% buffered formalin and stored at room temperature until paraffin embedding for histological analysis. The other lung lobes were dissociated using the lung dissociation kit (Cat #130-095-927; Miltenyi Biotec) and automated tissue dissociator (gentleMACS; Miltenyi Biotec) as described above with the adjustment that after running program lung_02, the single cell suspension was centrifuged at 1300 rpm for 5 min at 4° C. and 1 ml of the supernatant was frozen at −20° C. Single-cell suspension was resuspended in complete cell culture medium and stored on ice until further processing.
For cell counts, lung cells were transferred into FACS tubes and stained with 7AAD. Precision Count Beads (Cat #424902; BioLegend) were added according to manufacturer's instructions. Cells and beads were acquired on a BD LSRFortessa (BD Biosciences) and cell numbers were calculated based on number of acquired live (7AAD−) cells and number of acquired beads.
For flow cytometric analysis, lung cells were transferred into a 96 well V-bottom plate and stained with surface antibodies for 20 min at 4° C. in the dark. Cells were washed twice with DPBS containing 2% fetal bovine serum and transferred into 1.2 ml tubes for analysis by flow cytometry. For intracellular cytokine staining, cells were incubated in complete cell culture medium with 50 ng/ml phorbol 12-myristate 13-acetate (Sigma-Aldrich), 1 uM ionomycin (Sigma-Aldrich) and GolgiStop (Cat #554724; BD Biosciences) in a humidified incubator at 37° C. and 10% CO2. After 5 hours, cells were transferred into 96 well V-bottom plate, stained with Fixable Viability Dye eFluor 506 (Cat #65-0866-14; Thermo Fisher) and surface antibodies for 20 min at 4° C. in the dark and washed twice with DPBS containing 2% fetal bovine serum. Then, cells were incubated with BD Cytofix/Cytoperm Buffer (Cat #51-2090KZ; BD Biosciences) for 20 min, followed by a wash with BD Perm/Wash Buffer (Cat #51-2091KZ; BD Biosciences). Subsequently, cells were incubated with antibodies targeting intracellular proteins diluted in BD Perm/Wash Buffer for 20 min and after two wash steps, transferred into 1.2 ml tubes for analysis by flow cytometry. For ki67 staining, cells were stained for surface antibodies as described above, fixed with a solution of Fixation/Permeabilization Concentrate (Cat #00-5123-43; Invitrogen) and Fixation/Perm Diluent (Cat #00-5223-56; Invitrogen) for 20 min, washed with Permeabilization Buffer (Cat #00-8333-56; Invitrogen). Then, cells were incubated with ki67 antibody diluted in Permeabilization Buffer for 20 min, washed and transferred into FACS tubes. Cells were analyzed on a BD LSRFortessa (BD Biosciences) flow cytometer with 5 lasers (355 nm, 405 nm, 488 nm, 561 nm and 640 nm). Data was analyzed using FlowJo v10.5.0 software and cell populations were gated as described previously (Wallrapp 2017).
RNA isolation and cDNA synthesis. […]

[2] = system: ILC2s; settings: recent report (Sui et al., 2018); cited from earlier work

CGRP: neuropeptide calcitonin gene-related peptide (encoded by Calca), ligand of the Ramp1/Calcrl receptor; given at 100 nM in vitro, 6.65 ug nasally
lung ILC frequencies and numbers ([1]; IL-25+CGRP vs IL-25, nasal, three consecutive days): no effect
IL-5 protein in lung tissue and BALF ([1]; IL-25+NMU+CGRP vs IL-25+NMU): non-significant trend towards reduced expression
IL-13 protein in lung tissue and bronchoalveolar lavage fluid ([1]; IL-25+NMU+CGRP vs IL-25+NMU): reduced
ILC proliferation (intracellular Ki67) ([1]; IL-25+NMU+CGRP vs IL-25+NMU): significantly decreased
eosinophil frequency and numbers in the BAL ([1]; IL-25+NMU+CGRP vs IL-25+NMU): towards decreased
lung ILC frequencies and numbers ([1]; IL-25+NMU+CGRP vs IL-25+NMU): strong reduction
type 2 cytokine mRNA in lung tissue ([1]; IL-25+NMU+CGRP vs IL-25+NMU): diminished expression
IL-5 and amphiregulin (Areg) production by ILC2s [2]: enhanced

— patent publication US20210386829A1, “COMPOSITIONS AND METHODS FOR MODULATING CGRP SIGNALING TO REGULATE INNATE LYMPHOID CELL INFLAMMATORY RESPONSES” (The Broad Institute, Inc., priority 2018, published 2021)
